Experimental data taken from patent US7179808B2 (Janssen Pharmaceutica N.V., priority 2002, dated 2007).
Structures can show the parent of a compound that is named as a salt.

Experiments:
NADPH-oxidase = target: T1, NADPH-oxidase (Homo sapiens, UniProt P04839); test: Oxidase Inhibition Assay (PMA-stimulated superoxide-mediated reduction of Cytochrome c, absorbance at 550 nm); type: cell-based; settings: for IC50: human neutrophils, 0.5 μM PMA, Cytochrome c reduction at 550 nm
T1 construct: endogenous in cells; host or cells: human neutrophils isolated from the buffy coat of one unit of blood
T1 sequence (P04839 1-570): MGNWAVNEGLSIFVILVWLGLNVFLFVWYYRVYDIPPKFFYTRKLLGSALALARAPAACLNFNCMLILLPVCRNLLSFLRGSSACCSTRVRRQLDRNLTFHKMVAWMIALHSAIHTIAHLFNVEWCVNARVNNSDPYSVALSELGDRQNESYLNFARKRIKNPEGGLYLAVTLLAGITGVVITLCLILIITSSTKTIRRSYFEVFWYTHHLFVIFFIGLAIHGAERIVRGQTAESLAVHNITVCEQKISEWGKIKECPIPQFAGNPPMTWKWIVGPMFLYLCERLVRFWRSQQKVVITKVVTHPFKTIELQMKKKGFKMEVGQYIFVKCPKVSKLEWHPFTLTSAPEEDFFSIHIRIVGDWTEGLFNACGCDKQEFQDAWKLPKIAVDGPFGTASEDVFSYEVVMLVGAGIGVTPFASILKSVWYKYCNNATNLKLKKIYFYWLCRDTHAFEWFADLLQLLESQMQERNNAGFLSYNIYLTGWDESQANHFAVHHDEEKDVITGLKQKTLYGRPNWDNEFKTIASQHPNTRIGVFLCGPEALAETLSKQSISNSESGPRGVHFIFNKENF
T1 sequence (P13498 1-195 partner): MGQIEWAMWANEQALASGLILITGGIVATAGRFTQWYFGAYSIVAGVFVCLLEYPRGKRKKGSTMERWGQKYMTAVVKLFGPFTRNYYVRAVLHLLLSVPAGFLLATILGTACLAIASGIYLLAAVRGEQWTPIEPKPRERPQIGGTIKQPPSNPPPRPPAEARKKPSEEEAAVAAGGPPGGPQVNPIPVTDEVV
Description: Whole cells (human neutrophils) are incubated with a pro-inflammatory agonist phorbol myristate acetate (PMA) in the presence or absence of test compound to measure the superoxide-mediated reduction of Cytochrome c at 550 nm. Inhibition of the oxidase is determined by a decreased absorbance at 550 nm, in response to test compound, relative to the absorbance seen with a vehicle control.
The buffy coat from one unit of blood is split evenly into four 50 mL tubes. To each tube 30 mL 3% Dextran (in 0.9% NaCl) is added and the tubes are inverted to mix. Tubes are allowed to sit undisturbed for 25 minutes. The resulting supernatant is recovered into four fresh tubes and centrifuged for 10 minutes at 600×g, 4° C. The supernatant is discarded and pellets are resuspended in 35 mL 0.9% saline. 10 mL Ficoll-Paque PLUS (Pharmacia Biotech AB) is layered beneath the cell suspension and centrifuged at 600×g for 40 minutes at room temperature. The supernatant is again discarded and tubes are tapped to loosen the resulting pellets. 20 mL 0.2% ice cold saline is added for 30 seconds followed by 20 mL 1.6% ice cold saline to lyse the remaining erythrocytes in the pellets. The pellets are centrifuged for 10 minutes at 600×g, 4° C., and the supernatant is discarded. The neutrophil pellets are resuspended in HBSS-glucose buffer (1 mg/mL), adding 2.5 mL to each tube for a total volume of 10 mL. The cell suspension is then counted on a hemocytometer.
The cell suspension is diluted to a concentration of 5×10^6/mL in HBSS-glucose and treated with 1 μg/mL Cytochalasin B (5 mg/mL DMSO) for 10 minutes at 37° C. in a shaking water bath. Cells are diluted to 6×10^5 cells/mL in 92 μM Cytochrome c for a final concentration of 5×10^4 cells/well.
The NADPH-oxidase assay is run on a Biomek 2000 workstation. The workstation adds 2.5 μl compound per well from source plates plus 12.5 μL per well 4 μM PMA (agonist). This volume is brought up to 100 μL total per well in the assay plates upon the addition of the prepared cells (85 μL). The final concentration of drug is 25 μM and PMA is 0.5 μM under these conditions.
The QC curve is a dose-responsive curve (from about 31.25 nM to about 4000 nM) for competitive binding against a known oxidase inhibitor such as DPI (diphenylene iodonium chloride). The following format was used for each compound tested:
The plates are incubated for 1 hour at 37° C. without CO2. The plates are then incubated at room temperature for 30 minutes and the absorbance is read at 550 nm.

[1] = system: mice with potassium peroxochromate arthritis; settings: cited from earlier work
ROS = settings: human patients with rheumatoid arthritis and osteoarthritis, pharmacological doses; cited from earlier work

| IC50 (NADPH-oxidase) | melting point | Molecule | other results |
| --- | --- | --- | --- |
| 1.65 µM | 63.5 to 64.5 °C | CCCNCc1cccc(OCc2nc(-c3ccc(Cl)cc3)cs2)c1 [Cpd 1, 3-[[4-(4-chlorophenyl)-2-thiazolyl]methoxy]-N-propyl-benzenemethanamine] |  |
|  | 63.5 to 64.5 °C | CCCNCc1ccc(OCc2nc(-c3ccc(Cl)cc3)cs2)cc1 [Cpd 1a, 4-[[4-(4-chlorophenyl)-2-thiazolyl]methoxy]-N-propyl-benzenemethanamine] |  |
|  | 86 to 88 °C | CCCCNCc1cccc(OCc2nc(-c3ccc(Cl)cc3)cs2)c1 [Cpd 2, 3-[[4-(4-chlorophenyl)-2-thiazolyl]methoxy]-N-(3-methylpropyl)-benzenemethanamine] |  |
| 0.04 µM | 94 to 94.5 °C | Clc1ccc(-c2csc(COc3cccc(CNC4CCCC4)c3)n2)cc1 [Cpd 3, 3-[[4-(4-chlorophenyl)-2-thiazolyl]methoxy]-N-cyclopentyl-benzenemethanamine] |  |
| 0.13 µM | 85 to 86 °C | Clc1ccc(-c2csc(COc3cccc(CNC4CCCCC4)c3)n2)cc1 [Cpd 4, 3-[[4-(4-chlorophenyl)-2-thiazolyl]methoxy]-N-cyclohexyl-benzenemethanamine] |  |
| 3.45 µM | 80.5 to 81.5 °C | Clc1ccc(-c2csc(COc3cccc(CNC4CC4)c3)n2)cc1 [Cpd 5, 3-[[4-(4-chlorophenyl)-2-thiazolyl]methoxy]-N-cyclopropyl-benzenemethanamine] |  |
| 1.47 µM |  | Clc1ccc(-c2csc(COc3cccc(CNCCN4CCOCC4)c3)n2)cc1 [Cpd 7] |  |
| 0.3 µM |  | COc1ccc2[nH]cc(CCNCc3cccc(OCc4nc(-c5ccc(Cl)cc5)cs4)c3)c2c1 [Cpd 9, N-[[3-[[4-(4-chlorophenyl)-2-thiazolyl]methoxy]phenyl]methyl]-5-methoxy-1H-indole-3-ethanamine.HCl] |  |
| 0.7 µM | 125.5 to 126.5 °C | Clc1ccc(-c2csc(COc3ccc(CNC4CCCC4)cc3)n2)cc1 [Cpd 10, 4-[[4-(4-chlorophenyl)-2-thiazolyl]methoxy]-N-cyclopentyl-benzenemethanamine] |  |
| 1.9 µM | 117 to 118.5 °C | NCc1cccc(OCc2nc(-c3ccc(Cl)cc3)cs2)c1 [Cpd 11, 3-[[4-(4-chlorophenyl)-2-thiazolyl]methoxy]-benzenemethanamine] |  |
|  |  | c1ccc2c(c1)[I+]c1ccccc1-2 [DPI, diphenylene iodoniumchloride] | inhibition at 10 µM (NADPH-oxidase; QC wells G–H, 2.5 μL of 10 μM DPI, at 250 nm (so in the source), agonist added): ~70%; inhibition of the arthritis ([1]; 10 mmol/kg): Complete inhibition; inhibited the arthritis ([1]; daily doses of 2.8 μmol/kg): 50% |
|  |  | CN1C(C(=O)Nc2ccccn2)=C(O)c2ccccc2S1(=O)=O [Piroxicam] | reduce levels of ROS (ROS): 25% |

| Molecule | IC50 (NADPH-oxidase) | melting point | other results |
| --- | --- | --- | --- |
| CC(C)CNCc1cccc(OCc2nc(-c3ccc(Cl)cc3)cs2)c1 | 2.5 µM |  |  |
| 4-(4-chlorophenyl)-2-[[3-[(5-methyl-2-furanyl)methyl]phenoxy]methyl]-thiazole [Cpd 8] | 0.7 µM |  |  |
| CN1CCCC1CNCc1cccc(OCc2nc(-c3ccc(Cl)cc3)cs2)c1 (centres unmarked) [Cpd 6, N-[[3-[[4-(4-chlorophenyl)-2-thiazolyl]methoxy]phenyl]methyl]-1-methyl-2-pyrrolidinemethanamine.(HCl)2] | 10 µM |  |  |
